# Laboratory results reported in patent US20240358693A1, “METHODS OF TREATING PAIN” (Aisa Pharma, Inc., priority 2023, published 2024).
# Test system: participants with Raynaud's Phenomenon secondary mostly to systemic sclerosis (SSc-RP)
# Assay: Frequency of weekly symptomatic RP attacks (patient diary), Phase 2a study Part A
# Format: in vivo, human
# Procedure: A randomized, placebo-controlled phase 2a study was performed and is in progress to assess the safety and efficacy of cilnidipine (10 mg and 20 mg) alone and in combination with 5 mg tadalafil, in participants with diagnosis of scleroderma and/or secondary Raynaud's disease.
# The relevant metrics measured by this tool daily are: • Study medication • SSc-RP symptoms (Reporting an attack including duration of attack) • Severity of the attack considering all symptoms of the attack e.g., tingling, numbness, pain, color changes (VAS 0-10 cm scale) • Participant's location at the time of the attack (inside home/outside home) • Selecting symptoms experienced during the attack (tingling, numbness, pain, color changes, other) • Pain rating during the attack (11-point Likert scale) • The RCS based on how much difficulty participants had with Raynaud's today, how many attacks the participant had, and how long they lasted. Participants will also be asked to consider how much pain, numbness, or other symptoms the Raynaud's caused in fingers (including painful sores), and how much the Raynaud's alone affected the use of hands today (VAS 0-10 cm scale).
# Percent change from baseline evaluation for frequency of weekly RP attacks were or will be used as the primary efficacy variable. The sponsor-developed participant-informed diary will be used to record data. Frequency of weekly RP attacks is defined as the total number of RP attacks divided by the number of days with available diary data within the last 7 days of each dosing period then multiplied by 7. Total number of RP attacks during the last 7 days of screening period divided by the number of days with available data then multiplied by 7 will be used as baseline for the analysis of all periods. The variable will be calculated as follows:
# Percentage change={(weekly RP attacks for the last 7 days of each dosing period−Baseline weekly RP attacks)/Baseline weekly RP attacks}*100%.
# Absolute change=weekly RP attacks for the last 7 days of each dosing period−Baseline weekly RP attacks
# Percent change from baseline evaluation for frequency of weekly RP attacks was and will be the primary efficacy endpoint. Frequency of weekly RP attacks is defined as the total number of RP attacks divided by the number of days with available diary data within the last 7 days of each dosing period then multiplied by 7. Total number of RP attacks during the last 7 days of screening period divided by the number of days with available data then multiplied by 7 will be used as baseline for the analysis of all periods.
# The following data was actually obtained in accordance with the protocol and plan delineated in Examples 1 and 2. The accompanying data involved 11 patients out of the planned 76 patient study. The study was done in patients with scleroderma (systemic sclerosis) who had relatively frequent Raynaud symptoms as they needed to average at least one attack per day during a screening period of up to two weeks. In this first phase of this double-blind placebo-controlled, prospective randomized study, patients were treated in parallel and after meeting study criteria were randomized to receive either placebo, cilnidipine 10 mg daily, cilnidipine 20 mg daily, tadalafil 5 mg daily, cilnidipine 10 mg plus 5 mg of tadalafil, or cilnidipine 20 mg plus 5 mg of tadalafil.
# [1] = Pooled Cilnidipine 20 mg and Cilnidipine 20 mg + Tadalafil 5 mg, n 4, Excluding Outliers, ITT Part A
# [2] = Pooled Cilnidipine (N = 3), ITT Part A
# [3] = Pooled Cilnidipine, n 3, Excluding Outliers, ITT Part A
# [4] = Pooled Cilnidipine, n 3, by Baseline RCS, 1st block (RCS <5.0), ITT Part A
# [5] = all cilnidipine and cilnidipine plus tadalafil treated patients (n=7)
# [6] = excluding outliers, by baseline RCS, first subgroup, cilnidipine 10 mg, tadalafil 5 mg daily
# [7] = excluding outliers, by baseline RCS, first subgroup, cilnidipine 20 mg, tadalafil 5 mg daily
# [8] = excluding outliers, by baseline RCS, first subgroup, pooled cilnidipine 10 mg and 20 mg, tadalafil 5 mg daily
structure (smiles),measurement,setting,value
"COCCOC(=O)C1=C(C)NC(C)=C(C(=O)OC/C=C/c2ccccc2)C1c1cccc([N+](=O)[O-])c1 (centres unmarked) [Cilnidipine, cilnidipine]","Weekly Symptomatic RP Attacks Change from Baseline, Median",[1],−3.50
same,"Weekly Symptomatic RP Attacks Percent Change from Baseline, Mean (SD)",[1],−25.00 (14.410) %
same,"Weekly Symptomatic RP Attacks Percent Change from Baseline, Median",[1],−28.17%
same,"Weekly Symptomatic RP Attacks, Mean (SD)",[1],9.75 (3.403)
same,"Weekly Symptomatic RP Attacks, Median",[1],10.50
same,"Weekly Symptomatic RP Attacks Change from Baseline, Mean",[2],−5.33
same,"Weekly Symptomatic RP Attacks Change from Baseline, Median",[2],−7.00
same,"Weekly Symptomatic RP Attacks Percent Change from Baseline, Mean",[2],−33.60%
same,"Weekly Symptomatic RP Attacks Percent Change from Baseline, Median",[2],−33.33%
same,"Weekly Symptomatic RP Attacks, Mean",[2],10.00
same,"Weekly Symptomatic RP Attacks, Median",[2],11.00
same,"Weekly Symptomatic RP Attacks Change from Baseline, Mean (SD)",[3],−5.33 (2.887)
same,"Weekly Symptomatic RP Attacks Change from Baseline, Median",[3],−7.00
same,"Weekly Symptomatic RP Attacks Percent Change from Baseline, Mean (SD)",[3],−33.60 (5.164) %
same,"Weekly Symptomatic RP Attacks Percent Change from Baseline, Median",[3],−33.33%
same,"Weekly Symptomatic RP Attacks, Mean (SD)",[3],10.00 (4.583)
same,"Weekly Symptomatic RP Attacks, Median",[3],11.00
same,"Weekly Symptomatic RP Attacks Change from Baseline, Mean (SD)",[4],−5.33 (2.887)
same,"Weekly Symptomatic RP Attacks Change from Baseline, Median",[4],−7.00
same,"Weekly Symptomatic RP Attacks Percent Change from Baseline, Mean (SD)",[4],−33.60 (5.164) %
same,"Weekly Symptomatic RP Attacks Percent Change from Baseline, Median",[4],−33.33%
same,"Weekly Symptomatic RP Attacks, Mean (SD)",[4],10.00 (4.583)
same,"Weekly Symptomatic RP Attacks, Median",[4],11.00
same,patients in whom the average frequency of Raynaud's attacks decreased more than 25%,[5],6 of 7
same,"weekly frequency of Raynaud attacks, direction of change",[5],decrease
same,"reduction in the weekly frequency of attacks, range","baseline RCS <5.0, all cilnidipine and cilnidipine plus tadalafil treated patients (n=5)",28%-44%
same,"Weekly Symptomatic RP Attacks Change from Baseline, Max",[6],"−7.0, −7.0"
same,"Weekly Symptomatic RP Attacks Change from Baseline, Mean (SD)",[6],−7.00
same,"Weekly Symptomatic RP Attacks Change from Baseline, Median",[6],−7.00
same,"Weekly Symptomatic RP Attacks Change from Baseline, Min",[6],"−7.0, −7.0"
same,"Weekly Symptomatic RP Attacks Change from Baseline, Q1",[6],"−7.00, −7.00"
same,"Weekly Symptomatic RP Attacks Change from Baseline, Q3",[6],"−7.00, −7.00"
same,"Weekly Symptomatic RP Attacks Percent Change from Baseline, Max",[6],"−33.3, −33.3%"
same,"Weekly Symptomatic RP Attacks Percent Change from Baseline, Mean (SD)",[6],−33.33%
same,"Weekly Symptomatic RP Attacks Percent Change from Baseline, Median",[6],−33.33%
same,"Weekly Symptomatic RP Attacks Percent Change from Baseline, Min",[6],"−33.3, −33.3%"
same,"Weekly Symptomatic RP Attacks Percent Change from Baseline, Q1",[6],"−33.33, −33.33%"
same,"Weekly Symptomatic RP Attacks Percent Change from Baseline, Q3",[6],"−33.33, −33.33%"
same,"Weekly Symptomatic RP Attacks, Max",[6],"14.0, 14.0"
same,"Weekly Symptomatic RP Attacks, Mean (SD)",[6],14.00
same,"Weekly Symptomatic RP Attacks, Median",[6],14.00
same,"Weekly Symptomatic RP Attacks, Min",[6],"14.0, 14.0"
same,"Weekly Symptomatic RP Attacks, Q1",[6],"14.00, 14.00"
same,"Weekly Symptomatic RP Attacks, Q3",[6],"14.00, 14.00"
same,"Weekly Symptomatic RP Attacks Change from Baseline, Max",[7],−2.0
same,"Weekly Symptomatic RP Attacks Change from Baseline, Mean (SD)",[7],−4.50 (3.536)
same,"Weekly Symptomatic RP Attacks Change from Baseline, Median",[7],−4.50
same,"Weekly Symptomatic RP Attacks Change from Baseline, Min",[7],−7.0
same,"Weekly Symptomatic RP Attacks Change from Baseline, Q1",[7],−7.00
same,"Weekly Symptomatic RP Attacks Change from Baseline, Q3",[7],−2.00
same,"Weekly Symptomatic RP Attacks Percent Change from Baseline, Max",[7],−28.6%
same,"Weekly Symptomatic RP Attacks Percent Change from Baseline, Mean (SD)",[7],−33.73 (7.296) Percent
same,"Weekly Symptomatic RP Attacks Percent Change from Baseline, Median",[7],−33.73%
same,"Weekly Symptomatic RP Attacks Percent Change from Baseline, Min",[7],−38.9%
same,"Weekly Symptomatic RP Attacks Percent Change from Baseline, Q1",[7],−38.89%
same,"Weekly Symptomatic RP Attacks Percent Change from Baseline, Q3",[7],−28.57%
same,"Weekly Symptomatic RP Attacks, Max",[7],11.0
same,"Weekly Symptomatic RP Attacks, Mean (SD)",[7],8.00 (4.243)
same,"Weekly Symptomatic RP Attacks, Median",[7],8.00
same,"Weekly Symptomatic RP Attacks, Min",[7],5.0
same,"Weekly Symptomatic RP Attacks, Q1",[7],5.00
same,"Weekly Symptomatic RP Attacks, Q3",[7],11.00
same,"Weekly Symptomatic RP Attacks Change from Baseline, Max",[8],−2.0
same,"Weekly Symptomatic RP Attacks Change from Baseline, Mean (SD)",[8],−5.33 (2.887)
same,"Weekly Symptomatic RP Attacks Change from Baseline, Median",[8],−7.00
same,"Weekly Symptomatic RP Attacks Change from Baseline, Min",[8],−7.0
same,"Weekly Symptomatic RP Attacks Change from Baseline, Q1",[8],−7.00
same,"Weekly Symptomatic RP Attacks Change from Baseline, Q3",[8],−2.00
same,"Weekly Symptomatic RP Attacks Percent Change from Baseline, Max",[8],−28.6%
same,"Weekly Symptomatic RP Attacks Percent Change from Baseline, Mean (SD)",[8],−33.60 (5.164) Percent
same,"Weekly Symptomatic RP Attacks Percent Change from Baseline, Median",[8],−33.33%
same,"Weekly Symptomatic RP Attacks Percent Change from Baseline, Min",[8],−38.9%
same,"Weekly Symptomatic RP Attacks Percent Change from Baseline, Q1",[8],−38.89%
same,"Weekly Symptomatic RP Attacks Percent Change from Baseline, Q3",[8],−28.57%
same,"Weekly Symptomatic RP Attacks, Max",[8],14.0
same,"Weekly Symptomatic RP Attacks, Mean (SD)",[8],10.00 (4.583)
same,"Weekly Symptomatic RP Attacks, Median",[8],11.00
same,"Weekly Symptomatic RP Attacks, Min",[8],5.0
same,"Weekly Symptomatic RP Attacks, Q1",[8],5.00
same,"Weekly Symptomatic RP Attacks, Q3",[8],14.00
